Reference: the supplement of paper PMC10307832

Assays:
Experiment in all cases: relative viability (nuclei count vs DMSO), 5 days (fraction); higher = more cells survive
Ruxolitinib + Phenformin = compound: N#CC[C@H](C1CCCC1)n1cc(-c2ncnc3[nH]ccc23)cn1 [Ruxolitinib] + N=C(N)NC(=N)NCCc1ccccc1 [Phenformin] (partner 250 µM)
Outline: (§1)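 Five library-drug doses in √10 steps were combined with a fixed anchor-drug dose, or a single drug was given alone, by pin tool to lung cancer cell lines in 1536-well plates the day after seeding. Nuclei were stained and counted after 5 days. Relative viability is the nuclei count in treated wells over that in vehicle wells, taken as the median of duplicate plates.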

Ruxolitinib + Navitoclax = compound: N#CC[C@H](C1CCCC1)n1cc(-c2ncnc3[nH]ccc23)cn1 [Ruxolitinib] + CC1(C)CCC(c2ccc(Cl)cc2)=C(CN2CCN(c3ccc(C(=O)NS(=O)(=O)c4ccc(N[C@H](CCN5CCOCC5)CSc5ccccc5)c(S(=O)(=O)C(F)(F)F)c4)cc3)CC2)C1 [Navitoclax] (partner 0.5 µM)
Outline: as §1

VE-821 + OSI-027 = compound: CS(=O)(=O)c1ccc(-c2cnc(N)c(C(=O)Nc3ccccc3)n2)cc1 [VE-821] + COc1cccc2cc(-c3nc([C@H]4CC[C@H](C(=O)O)CC4)n4ncnc(N)c34)[nH]c12 [OSI-027] (partner 0.5 µM)
Outline: as §1

Ruxolitinib + Olaparib = compound: N#CC[C@H](C1CCCC1)n1cc(-c2ncnc3[nH]ccc23)cn1 [Ruxolitinib] + O=C(c1cc(Cc2n[nH]c(=O)c3ccccc23)ccc1F)N1CCN(C(=O)C2CC2)CC1 [Olaparib] (partner 8 µM)
Outline: as §1

UMC-11
relative viability (Ruxolitinib + Phenformin; first compound 0.08 µM): 0.344 | relative viability (Ruxolitinib + Phenformin; first compound 0.253 µM): 0.326 | relative viability (Ruxolitinib + Phenformin; first compound 0.8 µM): 0.356 | relative viability (Ruxolitinib + Phenformin; first compound 2.53 µM): 0.279 | relative viability (Ruxolitinib + Phenformin; first compound 8 µM): 0.257 | relative viability (Ruxolitinib + Navitoclax; first compound 0.08 µM): 0.3 | relative viability (Ruxolitinib + Navitoclax; first compound 0.253 µM): 0.302 | relative viability (Ruxolitinib + Navitoclax; first compound 0.8 µM): 0.388 | relative viability (Ruxolitinib + Navitoclax; first compound 2.53 µM): 0.352 | relative viability (Ruxolitinib + Navitoclax; first compound 8 µM): 0.288 | relative viability (VE-821 + OSI-027; first compound 0.08 µM): 0.507 | relative viability (VE-821 + OSI-027; first compound 0.253 µM): 0.436 | relative viability (VE-821 + OSI-027; first compound 0.8 µM): 0.508 | relative viability (VE-821 + OSI-027; first compound 2.53 µM): 0.477 | relative viability (VE-821 + OSI-027; first compound 8 µM): 0.325 | relative viability (Ruxolitinib + Olaparib; first compound 0.08 µM): 0.37 | relative viability (Ruxolitinib + Olaparib; first compound 0.253 µM): 0.894 | relative viability (Ruxolitinib + Olaparib; first compound 0.8 µM): 1.03 | relative viability (Ruxolitinib + Olaparib; first compound 2.53 µM): 0.366 | relative viability (Ruxolitinib + Olaparib; first compound 8 µM): 0.315
